The text below walks through data of US12509482B2, “3′-ketoglycoside compound for the slow release of a volatile alcohol” (GLYCOSCIENCE, S.L., priority 2020, dated 2025).

Structures are written as SMILES. Values joined by “and” are separate entries in the source; they are usually repeats but may differ in a detail not shown here. Identical values can stand only once.

Data set [1] deals with mosquito Culex pipiens pallens. Conditions: Park et al., J. Am. Mosquito Control Assoc., 2005; cited from earlier work.
Data set [2] can be described thus: Example 32: release of geraniol from geranyl-O-β-D-3′-ketoglucopyranoside (PEG200, L-arginine, calcium chloride solution) on a paper kitchen towel disc, room temperature. Format: physicochemical. On the procedure:
Geranyl-O-β-D-3′-ketoglucopyranoside, obtained according to Example 4, (50 mg) was dissolved in polyethylene glycol 200 (PEG200) (0.1 mL) with gentle heating. 0.1 mL of a solution of L-arginine (10 mg) dissolved in 0.1 mL of a 3:7 w/v solution of anhydrous calcium chloride in water was then added and thoroughly mixed. The resultant solution was spread over a 5 cm diameter paper kitchen towel disc and left to stand at room temperature. The smell of released geraniol evolved from the disc was then assessed with time as strong, medium or weak and reported in Table XIX:
After 19 h, the reaction mixture was dissolved in D4-MeOH and analysed by 1H NMR.

Data set [3] concerns Aedes albopictus mosquitoes. The data set can be described thus: Example 33: in vitro mosquito testing, landings on treated Hemotek membranes. Conditions: for Landing (total number of landings over the 20-minute exposure): 50 mg on membrane, 15 females, duplicate membranes. Format: in vivo. As for the experimental part: Aedes albopictus mosquitoes were reared and maintained at 26±2° C. temperature, ≥80%±10 relative humidity, with a 12 h:12 h (light:dark) photoperiod.
Populations of adult mosquitoes were allowed to feed on sugar solution (10%) but were not blood fed before tests.
Geranyl-O-β-D-3′-ketoglucopyranoside, obtained according to Example 4, (100 mg) was dissolved in polyethylene glycol 200 (PEG200) (0.2 mL) with gentle heating to give Solution 1. Then 200 mg of L-arginine was dissolved in 2 mL of a 3:7 w/v solution of anhydrous calcium chloride in water to give Solution 2. Solution 2 (0.2 mL) was added to all of Solution 1 to give Solution 3. The contents of Solution 3 were thoroughly mixed and half of the resultant solution was applied to parallel 5 cm diameter artificial Hemotek membranes covered with paper kitchen towel of equal diameter. Parallel duplicate membranes, covered with paper kitchen towel, were also each treated with 0.2 mL of a 1:1 v/v solution of PEG200/Solution 2 and a further two parallel membranes were left untreated.
The membranes were heated over a reservoir of sheeps' blood at 37° C. using a Hemotek system and periodically exposed to 5- to 7-day old active host-seeking female mosquitoes, selected and collected using an aspirator and organized into batches (15 females) in plastic test containers. The heating was switched off between exposures to maintain membrane integrity and switched on 5 minutes prior to each exposure. Each membrane was exposed to a fresh container of female mosquitos for 20 minutes immediately after membrane preparation and again after 2 h, 4 h, 6 h and 8 h. At each time point, the number of mosquitos landing on each membrane immediately after exposure and 5, 10 and 20 minutes after exposure was counted and the total number of landings over each 20-minute exposure summed and tabulated.

A short description of data set [4]: Example 17: release of geraniol from a 40 mg/mL suspension of geranyl-O-β-D-3′-ketoglucopyranoside, 0.1 M phosphate buffer pH 7, 10% DMSO, 37° C. Conditions: after 3 d. Format: physicochemical. On the procedure:
In this example the rate of release of geraniol from a 40 mg/mL suspension of (2R,3S,6R)-2-(((E)-3,7-dimethylocta-2,6-dien-1-yl)oxy)-3,5-dihydroxy-6-(hydroxymethyl)tetrahydro-4H-pyran-4-one (geranyl-O-β-D-3′-ketoglucopyranoside) in 0.1 M deuterated phosphate buffer solution, pH 7, containing 10% DMSO at 37° C. was determined.
In a stoppered glass vial, geranyl-O-β-D-3′-ketoglucopyranoside (20 mg) was dissolved in D6-DMSO (0.05 mL) then diluted with 0.1 M sodium phosphate buffer, pH 7.0 (0.45 mL) and the resultant suspension incubated by shaking at 37° C.

Data set [5] in a line: Example 16: release of geraniol from geranyl-O-β-D-3′-ketoglucopyranoside, 0.1 M deuterated phosphate buffer, 10% D6-DMSO, 37° C., presence and absence of fresh skin wash. The class given is physicochemical. As for the experimental part:
In this example the rate of release of geraniol from (2R,3S,6R)-2-(((E)-3,7-dimethylocta-2,6-dien-1-yl)oxy)-3,5-dihydroxy-6-(hydroxymethyl)tetrahydro-4H-pyran-4-one (geranyl-O-β-D-3′-ketoglucopyranoside) in 0.1 M deuterated phosphate buffer solutions of differing pH containing 10% D6-DMSO or in D2O containing 10% D6-DMSO at 37° C. in the presence and absence of fresh skin wash was determined.
1 M Stock solutions of sodium dihydrogen phosphate and disodium hydrogen phosphate were prepared in deuterated water (D2O).
A stock solution of 25 mg of geranyl-O-β-D-3′-ketoglucopyranoside in 0.5 mL of D6-DMSO were prepared.
In a typical experiment, a stock solution of fresh skin wash suspension was prepared by swabbing a 25 cm^2 areas of cheek skin of a human volunteer by robustly rubbing the area with a cotton wool gauze (5×5 cm^2) soaked in D2O (12.5 mL) for 1 minute and then resuspending the gauze in the D2O solution, rapidly shaking and removing the gauze after squeezing out as much liquid as possible with a spatula. 1 M Stock solutions phosphate buffer, pH 5.7 and 7.0 were prepared by appropriately mixing 1 M stock phosphate salts solutions to the correct pH as determined using a calibrated pH meter.
Half of each buffer stock solution was diluted ten times with D2O and the other with the above skin washing stock solution to give a 0.1 M phosphate buffer in D2O with a final pH of 5.7, 0.1 M phosphate buffer in D2O with a final pH of 7.0, a 0.1 M phosphate buffer in skin wash solution with a final pH of 5.7 and a 0.1 M phosphate buffer in skin wash solution with a final pH of 7.0.
To three parallel reaction vials, where indicated in the reaction table below, was added 0.45 mL of low or high pH 0.1 M phosphate buffer in D2O or 0.45 mL of low or high pH 0.1M phosphate buffer in skin wash solution followed by 0.05 mL of the glycoside substrate solutions in D6-DMSO and the mixtures incubated by shaking at 37° C. After times indicated in table below, the mixtures where analysed by ^1H-NMR with 128 scans using a 400 MHz instrument.

Data set [6] can be described thus: Example 31: stability of geranyl-O-β-D-3′-ketoglucopyranoside in D2O at 50° C. The class given is physicochemical. Conditions: 5 mg in D2O (1 mL), 2 weeks. On the procedure:
Geranyl-O-β-D-3′-ketoglucopyranoside, obtained according to Example 4 (5 mg) was added to D2O (1 mL) and heated at 50° C.

Data set [7] in a line: Description: alcohol release from model compounds (III), (IV) and compound (V) in buffer, water and skin washings. Format: physicochemical.

Consider `Cc1ccc(C(C)C)cc1O` [Carvacrol, 2-methyl-5-propan-2-ylphenol], for which the “repellency compared with DEET (in words)” value in data set [1] is recorded as “outperformed N,N-diethyl-m-methylbenzamide (DEET)”.

In the case of `CC(C)=CCC/C(C)=C/CO[C@@H]1O[C@H](CO)[C@@H](O)C(=O)[C@H]1O` [geranyl-O-β-D-3′-ketoglucopyranoside, (2R,3S,6R)-2-(((E)-3,7-dimethylocta-2,6-dien-1-yl)oxy)-3,5-dihydroxy-6-(hydroxymethyl)tetrahydro-4H-pyran-4-one], the “Geraniol strength by smell” value in data set [2] (0 h), in data set [2] (0.3 h), in data set [2] (2 h), in data set [2] (3 h), in data set [2] (4 h) and in data set [2] (6 h) was “strong” throughout. The “Geraniol strength by smell” value in data set [2] (11 h) and in data set [2] (19 h) was “medium” in each case. Moreover, the “Landing (total number of landings over the 20-minute exposure)” value in data set [3] (6 h, listed as GS0010) is 4 and 3; in data set [3] (8 h), 0. Besides, the “repellent effect (conclusion in words)” value in data set [3] (in vivo) is reported as “a repellent effect is provided”. In data set [3] (over 8 h), the “landings compared with diluent treated or untreated membranes (in words)” value was “significantly fewer landings than observed with diluent treated or untreated membranes”. Also, the “extent of conversion to geraniol by 1H-NMR” value in data set [4] is reported as “approximately 50%”. The smell of geraniol result in data set [4] is “a strong smell of geraniol was observed”. Further, the “% Conversion by 1H-NMR” value in data set [5] (0.1M buffer in D2O, final pH 5.7, 19 h) stood at 3%; in data set [5] (0.1M buffer in D2O, final pH 5.7, 41 h) it was 6%; in data set [5] (0.1M buffer in D2O, final pH 5.7, 72 h), 10%; in data set [5] (0.1M buffer in D2O, final pH 7.0, 19 h), 9%; in data set [5] (0.1M buffer in D2O, final pH 7.0, 41 h), 28%; in data set [5] (0.1M buffer in D2O, final pH 7.0, 72 h), 51%. Also, the “% Conversion by 1H-NMR” value in data set [5] (0.1M buffer in skin wash solution, final pH 7.0, 19 h) came out at 10%; in data set [5] (0.1M buffer in skin wash solution, final pH 7.0, 41 h), 31%; in data set [5] (0.1M buffer in skin wash solution, final pH 7.0, 72 h), 48%. Also, in data set [5] (37° C., presence or absence of skin wash), the “pH dependence of geraniol release (in words)” value is given as “only slowly degraded at pH 5.8, but releases geraniol at a significantly higher rate at pH 7.4 that is unchanged in the presence or absence of skin wash”. Besides, the “stability in D2O by 1H NMR (in words)” value in data set [6] is given as “stable”. For the same molecule, the “degradation rate compared with compound (III) (in words)” value in data set [7] was “degraded significantly faster than compound (III)”. In addition, in data set [7] (20 mg/mL mixture, after 3 d), the “aroma of geraniol on opening the stoppered reaction vessel” value is recorded as “a very pungent aroma of geraniol was immediately noticeable”. In data set [7] (after 3 days), the degraded result is “approximately 50%”.
